Source: ChEMBL document CHEMBL4725391, “Discovery and Optimization of Novel SUCNR1 Inhibitors: Design of Zwitterionic Derivatives with a Salt Bridge for the Improvement of Oral Exposure” (J Med Chem, 2020)
Active and inactive are the calls of the source. No cut-off for these calls is given here.

Key:
[1] = Octanol-water distribution coefficient, log D of the compound by shake flask method; type: physicochemical
[2] = Permeability of compound by PAMPA assay; type: ADME
[3] = Dose normalized AUC in C57BL/6 mouse at 3 mg/kg, po measured after 0.25 to 24 hrs by LC-MS/MS analysis; type: ADME, organism-based; conditions: in vivo, time 0.25-24 hrs
[4] = Oral bioavailability in C57BL/6 mouse measured after 0.25 to 24 hrs by LC-MS/MS analysis; type: ADME, organism-based; conditions: in vivo, time 0.25-24 hrs
[5] = Clearance in C57BL/6 mouse at 1 mg/kg, iv administered as bolus dose measured after 0.083 to 24 hrs by LC-MS/MS analysis; type: ADME, organism-based; conditions: in vivo, time 0.083-24 hrs
[6] = Protein binding in human plasma at 5 uM incubated for 4 hrs by LC-MS/MS analysis; type: ADME, cell-free; conditions: read-out: PPB (converted)
[7] = Protein binding in C57BL/6 mouse plasma at 5 uM incubated for 4 hrs by LC-MS/MS analysis; type: ADME, cell-free; conditions: read-out: PPB (converted)
[8] = biological target: T1, Succinate receptor 1 (Mus musculus) (UniProt Q99MT6); experiment: Antagonist activity at mouse SUCNR1 100 uM
T1 sequence (whole entry): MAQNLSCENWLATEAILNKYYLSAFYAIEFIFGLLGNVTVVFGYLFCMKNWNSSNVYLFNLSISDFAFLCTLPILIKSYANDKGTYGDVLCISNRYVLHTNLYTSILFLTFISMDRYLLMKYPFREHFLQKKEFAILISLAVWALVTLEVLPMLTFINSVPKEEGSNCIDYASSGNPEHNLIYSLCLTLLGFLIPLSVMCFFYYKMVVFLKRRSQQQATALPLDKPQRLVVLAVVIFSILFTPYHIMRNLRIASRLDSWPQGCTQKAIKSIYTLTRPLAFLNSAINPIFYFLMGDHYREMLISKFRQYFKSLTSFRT

[9] = biological target: T2, Succinate receptor 1 (Homo sapiens, UniProt Q9BXA5); experiment: Antagonist activity at human SUCNR1 expressed in human CHEM1 cells incubated for 60 mins in presence of [35S]GTPgammaS by scintillation proximity assay; type: functional, cell-based, Chem-1
T2 sequence (Q9BXA5 whole entry): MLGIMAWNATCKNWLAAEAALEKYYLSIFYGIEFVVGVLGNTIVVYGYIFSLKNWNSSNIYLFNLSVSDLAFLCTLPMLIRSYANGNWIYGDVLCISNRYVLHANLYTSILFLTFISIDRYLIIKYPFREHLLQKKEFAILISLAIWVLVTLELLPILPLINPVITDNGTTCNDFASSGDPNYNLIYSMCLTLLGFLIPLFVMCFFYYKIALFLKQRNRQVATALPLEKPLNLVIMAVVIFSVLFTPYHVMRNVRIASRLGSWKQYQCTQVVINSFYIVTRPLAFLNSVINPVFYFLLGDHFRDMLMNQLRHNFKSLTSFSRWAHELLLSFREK

[10] = biological target: T3, Succinate receptor 1 (Rattus norvegicus) (UniProt Q6IYF9); experiment: Antagonist activity at rat SUCNR1 expressed in CHO-K1 cell membranes at 100 uM incubated for 60 mins in presence of [35S]GTPgammaS by scintillation proximity assay relative to control; type: functional; conditions: filed as antagonist
T3 sequence (whole entry): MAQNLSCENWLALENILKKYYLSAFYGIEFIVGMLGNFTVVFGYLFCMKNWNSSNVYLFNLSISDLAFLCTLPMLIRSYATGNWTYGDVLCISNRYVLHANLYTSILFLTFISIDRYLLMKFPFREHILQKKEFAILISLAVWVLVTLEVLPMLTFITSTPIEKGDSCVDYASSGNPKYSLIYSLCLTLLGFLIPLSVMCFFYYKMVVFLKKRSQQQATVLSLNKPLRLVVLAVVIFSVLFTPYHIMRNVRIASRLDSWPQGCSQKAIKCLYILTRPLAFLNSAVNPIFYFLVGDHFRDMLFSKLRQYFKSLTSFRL

[11] = Intrinsic clearance in rat liver microsomes; type: ADME, Microsome; conditions: read-out: CLH
[12] = Ionization constant (base), pKa of the compound; type: physicochemical
[13] = Ionization constant (acid), pKa of the compound by UV metric assay; type: physicochemical
[14] = Dose normalized AUC in C57BL/6 mouse at 10 mg/kg, po measured after 0.25 to 24 hrs by LC-MS/MS analysis; type: ADME, organism-based; conditions: in vivo, time 0.25-24 hrs
[15] = biological target: T4, Succinate receptor 1 (Homo sapiens) (UniProt Q9BXA5); experiment: Antagonist activity at human SUCNR1 expressed in human CHEM1 cell membranes at 100 uM incubated for 60 mins in presence of [35S]GTPgammaS by scintillation proximity assay; type: functional; conditions: Chem-1
T4 sequence (whole entry): T2 sequence (Q9BXA5 whole entry)

[16] = biological target: Coagulation factor XI (Homo sapiens, UniProt P03951); experiment: Inhibition of human factor 11a by TR-FRET assay
Sequence of Coagulation factor XI (P03951 19-387 limits assumed): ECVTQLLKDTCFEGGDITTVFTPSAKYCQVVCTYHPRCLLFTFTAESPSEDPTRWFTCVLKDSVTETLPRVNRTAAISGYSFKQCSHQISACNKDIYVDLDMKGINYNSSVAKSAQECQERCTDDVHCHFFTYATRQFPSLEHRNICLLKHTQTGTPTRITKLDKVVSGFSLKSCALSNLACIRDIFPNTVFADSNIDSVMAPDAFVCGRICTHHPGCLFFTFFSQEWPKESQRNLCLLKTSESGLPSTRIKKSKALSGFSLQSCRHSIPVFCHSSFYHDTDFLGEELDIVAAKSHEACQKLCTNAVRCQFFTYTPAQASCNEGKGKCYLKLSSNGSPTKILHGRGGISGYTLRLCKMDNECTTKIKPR
Sequence of Coagulation factor XI (P03951 388-625 limits assumed): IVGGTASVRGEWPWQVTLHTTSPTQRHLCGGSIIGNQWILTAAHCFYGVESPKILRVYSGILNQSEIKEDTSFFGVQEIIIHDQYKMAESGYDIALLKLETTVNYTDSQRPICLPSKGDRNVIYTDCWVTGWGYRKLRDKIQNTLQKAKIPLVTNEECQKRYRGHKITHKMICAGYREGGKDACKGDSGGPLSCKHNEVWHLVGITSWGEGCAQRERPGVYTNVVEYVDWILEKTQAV

[17] = biological target: Complement factor D (Homo sapiens, UniProt P00746); experiment: Inhibition of recombinant human CFD expressed in Escherichia coli incubated up to 2 hrs by TR-FRET assay
Sequence of Complement factor D (P00746 whole entry): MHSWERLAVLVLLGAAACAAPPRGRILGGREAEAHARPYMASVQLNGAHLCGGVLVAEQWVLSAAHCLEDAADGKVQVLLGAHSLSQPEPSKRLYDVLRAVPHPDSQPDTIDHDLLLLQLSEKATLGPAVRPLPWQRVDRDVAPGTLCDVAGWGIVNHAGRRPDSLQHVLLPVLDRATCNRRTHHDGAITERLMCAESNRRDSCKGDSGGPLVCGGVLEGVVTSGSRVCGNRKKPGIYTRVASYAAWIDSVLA

[18] = Oral bioavailability in C57BL/6 mouse at 10 mg/kg measured after 0.25 to 24 hrs by LC-MS/MS analysis; type: ADME, organism-based; conditions: in vivo, time 0.25-24 hrs

Row | SMILES | logD [1] | log(permeability) [2] | IC50 [9] | further results
1 | O=C(O)Cc1ccccc1NC(=O)c1cccc(-c2ccc(Cl)c(OC3CNC3)c2)c1 | 2.6 | -5.2 | – | –
2 | O=C(O)Cc1ccccc1NC(=O)c1cccc(-c2ccc(Cl)c(O[C@@H]3CCCNC3)c2F)c1 | – | -5 | – | AUC/dose [3]: 2353 nmol·h/L; bioavailability [4]: 81%; clearance [5]: 12 mL/min/kg
3 | O=C(O)Cc1cc(F)ccc1NC(=O)c1cccc(-c2cc(O[C@@H]3CCCNC3)c(Cl)cc2F)c1F | – | -5.1 | 0.088 µM | inhibition [8]: 23%; inhibition [10]: 56%; AUC/dose [3]: 37000 nmol·h/L; bioavailability [4]: 74%; clearance [5]: 0.6 mL/min/kg
4 | O=C(O)CC(NC(=O)c1cccc(-c2ccc(Cl)cc2)c1)c1cccnc1 (configuration not stated) | 0.9 | -5.3 | 32 µM | microsomal CLint [11]: 25 µL/min/mg
5 | O=C(O)Cc1cc(F)ccc1NC(=O)c1cccc(-c2ccc(Cl)c(O[C@@H]3CCCNC3)c2F)c1 | – | -4.9 | – | AUC/dose [3]: 26100 nmol·h/L; bioavailability [4]: 93%; clearance [5]: 1.2 mL/min/kg
6 | O=C(O)Cc1cc(F)ccc1NC(=O)c1cccc(-c2cc(O[C@@H]3CCCNC3)c(Cl)cc2F)c1 | – | -4.4 | – | AUC/dose [3]: 5737 nmol·h/L; bioavailability [4]: 137%; clearance [5]: 8 mL/min/kg
7 | O=C(O)C[C@@H](NC(=O)c1cccc(-c2ccc(Cl)cc2)c1)c1cccnc1 | – | – | – | inhibition [15]: inactive
8 | O=C(O)Cc1ccccc1NC(=O)c1cccc(-c2ccc(Cl)c(OC3CCNC3)c2)c1 (configuration not stated) | 2.8 | -5.3 | – | –
9 | O=C(O)Cc1ccccc1NC(=O)c1cccc(-c2ccc(Cl)c(O[C@H]3CCCNC3)c2)c1F | – | – | – | fraction unbound at 4 h, 5 µM [6]: 0.014; fraction unbound at 4 h, 5 µM [7]: 0.003
10 | O=C(O)Cc1ccccc1NC(=O)c1cccc(-c2ccc(Cl)cc2)c1 | 1.9 | -3.8 | 1.3 µM | fraction unbound at 4 h, 5 µM [6]: < 0.01
11 | O=C(Nc1ccccc1C(=O)O)c1cccc(-c2ccc(Cl)cc2)c1 | 3 | -3.7 | 23 µM | –
12 | O=C(O)Cc1ccccc1NC(=O)c1cccc(-c2ccc(Cl)c(OC3CCCNC3)c2)c1 (configuration not stated) | 3.6 | -4.4 | 0.52 µM | pKa [12]: 9.4; pKa [13]: 4.1
13 | CN1CCN(Cc2ccc(-c3cccc(C(=O)Nc4ccccc4CC(=O)O)c3)cc2)CC1 | 0.5 | -5.5 | – | –
14 | NCCOc1cc(-c2cccc(C(=O)Nc3ccccc3CC(=O)O)c2)ccc1Cl | 2.8 | -5.4 | – | –

Continued, in another order:

Row | logD [1] | log(permeability) [2] | IC50 [9] | SMILES | further results
15 | 1.4 | -3.6 | – | O=C(O)Cc1ccccc1NC(=O)c1cccc(-c2ccc(Cl)cc2)c1F | AUC/dose [3]: 7814 nmol·h/L; bioavailability [4]: 95%; clearance [5]: 10 mL/min/kg
16 | – | -5.3 | – | O=C(O)Cc1ccccc1NC(=O)c1cccc(-c2ccc(Cl)c(O[C@@H]3CCCNC3)c2)c1F | AUC/dose [3]: 1437 nmol·h/L; fraction unbound at 4 h, 5 µM [6]: 0.04; fraction unbound at 4 h, 5 µM [7]: 0.026; bioavailability [4]: 46%; clearance [5]: 11 mL/min/kg
17 | 1.3 | -5.3 | 12 µM | O=C(O)C[C@H](NC(=O)c1cccc(-c2ccc(Cl)cc2)c1)c1cccnc1 | –
18 | – | < -5.3 | 27 µM | NCc1cccc(-c2cccc(C(=O)Nc3ccccc3CC(=O)O)c2)c1 | pKa [12]: 9.5; pKa [13]: 4; AUC/dose [14]: 206 nmol·h/L
19 | 2.1 | -5.3 | 0.3 µM | NCc1cc(-c2cccc(C(=O)Nc3ccccc3CC(=O)O)c2)ccc1Cl | IC50 [16]: 5.8 µM; IC50 [17]: > 100 µM; fraction unbound at 4 h, 5 µM [6]: 0.021
20 | – | -4.5 | > 100 µM | NCc1cccc(-c2cccc(COc3ccccc3CC(=O)O)c2)c1 | bioavailability [18]: > 100%; pKa [12]: 9.4; pKa [13]: 4.4; AUC/dose [14]: 3646 nmol·h/L
21 | 2.5 | -5.4 | 0.14 µM | O=C(O)Cc1ccccc1NC(=O)c1cccc(-c2ccc(Cl)c(OC3CCNCC3)c2)c1 | pKa [12]: 9.9; pKa [13]: 4.1
